pIC50, pKd: −log10 of the molar value. “And” between values parts separate entries of the source, which are not always exact repeats. Equal entries are not always repeated. Where two headings read alike, the source gives them in different places.
How the values were obtained:
full-length Aurora B = biological target: T1, full-length Aurora B (Homo sapiens, UniProt Q96GD4); assay: Surface plasmon resonance binding kinetics, Aurora B; details: SPR
T1 construct: to the kinase domain of TTK and full-length Aurora B; purchased Carna Biosciences, Inc., Kobe, Japan; host or cells: Sf9 insect cells
Source text: Originally, the compound was identified in a phenotypic screen for molecules that can induce stem-cell like phenotypes. Later this property was attributed to its ability to inhibit the mitotic kinase Aurora B [39].

[1] = test system: HCT 116 colon carcinoma cell line; assay: Cell proliferation assay (ATPlite), HCT 116; format: cell-based, human
Description: (§1) Cell proliferation assays were carried out as described using ATPlite 1step™ (Perkin Elmer, Groningen, The Netherlands). Exposure time was 72 or 120 hours as indicated in the Legends to the Figures. Percentage growth was calculated, relative to the growth of unexposed cells, and relative IC50s were fitted using a four-parameter logistics curve (XLfit 5.3, IDBS). For Figure 4A and 7 dose response curves were redrawn in Prism. To compare the inhibitory potency of compounds in proliferation assays with HCT 116 parental and tetraploid clones, pIC50 (−^10logIC50) values were compared in three independent experiments. A two-tailed Student's t-test was performed to determine whether differences in sensitivity (ΔpIC50) were statistically significant. Caspase 3/7 activity of cancer cells was measured using Caspase-Glo 3/7 Assay kit (cat no. G8093, Promega, Madison USA). Viability of T-ALL cell samples was determined using ATPlite and exposure of 72 hours as described previously.

[2] = test system: DoTc2 4510 cervix carcinoma cell line; assay: Cell proliferation assay (ATPlite), DoTc2 4510; format: cell-based, human; details: 5 day proliferation assay
Description: as §1

[3] = test system: OVCAR-3 ovary adenocarcinoma cell line; assay: Cell proliferation assay (ATPlite), OVCAR-3; format: cell-based, human; details: 5 day proliferation assay
Description: as §1

[4] = test system: post-tetraploid HPT1 cells; assay: Cell proliferation assay, post-tetraploid HPT1; format: cell-based, human; details: HPT1, five days
Description: (§2) Cancer cell lines and hTERT-RPE1 retinal pigment epithelial cells were purchased from the American Type Culture Collection (ATCC) (Manassas, VA, U.S.A.) from 2011 to 2014 [41] and cultured in ATCC-recommended media. All experiments were carried out within nine passages of the original vials from ATCC who authenticated the cancer cell lines by short tandem repeat analysis. We verified the mutant status of seven frequently mutated cancer genes (i.e., BRAF, CDKN2A, CTNNB1, EGFR, KRAS, PIK3CA and TP53) by full exome or targeted sequencing. Sequencing results were compared to COSMIC version 75 of the Genomics of Drug Sensitivity in Cancer data base and provided additional authentication of the identity of the cell lines. The isolation and characterization of post-tetraploid clones from HCT 116 has been described previously. The mutation status of the CDKN2A, CTNNB1, KRAS and PIK3CA genes were confirmed by sequence analysis in both the HCT 116 parental cell line and post-tetraploid clones. All experiments were carried out within nine passages of the original cell stocks that were transferred from the Max Planck Institute of Biochemistry (Martinsried, Germany) to Netherlands Translational Research Center.
as §1

[5] = test system: post-tetraploid HPT2 cells; assay: Cell proliferation assay, post-tetraploid HPT2; format: cell-based, human; details: HPT2, five days
Description: as §2, §1

[6] = test system: HCT 116 vs HPT1, -2 and -4; assay: Drug sensitivity analysis, HCT116 diploid versus tetraploids; format: cell-based, human
Description: as §1

[7] = test system: HCT 116, LoVo, A-172, DoTc2 4510, MG-63, OVCAR-3 cell lines; assay: Time-lapse microscopy, sensitive and resistant cell lines; format: cell-based, human; details: 100 nM
Description: The activity of the mitotic checkpoint was measured by the time between the breakdown of the nuclear envelop and the onset of anaphase (Figure 2A). Under the vehicle-treated control conditions, all sensitive cells were able to accomplish a normal mitosis in approximately 35 minutes (HCT 116, 30 min; LoVo, 41 min; A172, 36 min; Figure 2A and Supplementary Figure 1). In contrast, the three resistant cell lines spent more time in mitosis, i.e., almost one hour (MG-63, 53 min), or up to 2 and 3 hours (DoTc2 4510, 122 min; OVCAR-3, 173 min).
HCT 116 diploid and tetraploids stably expressed green fluorescent protein-tagged histone 2B (H2B-GFP). All other cell lines were pre-incubated with SiR-DNA (Spirochrome, Switzerland) in order to visualize DNA. Cells were cultured in Leibovitz L15 CO2-independent cell culture medium in 6-well glass bottom chamber (LabTek Corp., Australia) and synchronized by treatment with 2 mM thymidine. After 24 hours of synchronization, and 4 hours before the start of the imaging experiment, medium was replaced by medium without thymidine. […] Image Z-stacks were acquired with 3-μm intervals using a sCMOS camera (DeltaVision RT; Applied Precision, GE Healthcare, Issaquah, WA) and processed using ImageJ software (NIH, Bethesda, MD, USA). Chromosome mis-segregation phenotypes co-occurred and many combinations existed. For clarity, all the events were scored and included: more than two phenotypes, mitotic slippage, DNA bridge, micro-nuclei and multipolar spindle.

[8] = test system: caspase 3/7 in HCT 116, HPT1, HPT2 and HPT4 cells; assay: Caspase 3/7 activity assay; format: cell-based, human; details: 316 nM, three days, parental line and HPT1, HPT2, HPT4
Description: as §1

[9] = test system: HCT 116 parental cells or tetraploids; assay: Colony formation assay; format: cell-based, human; details: pre-treated 4 days with 100 nM, reseeded
Description: After 4 days, the cells were washed with phosphate-buffered saline (PBS) and allowed to recover for 24 hours. The remaining cells were collected and plated at a density of 1000 cells per well in a 96-well plate. After ten days, cells were fixed with 96% methanol for 20 minutes, washed with PBS and stained with 0.1% (w/v) crystal violet over-night. Plates were washed in tap water and allowed to dry before scanning and analysis with ImageJ software (NIH, Bethesda, MD, USA).

[10] = test system: HCT 116 colon carcinoma cell line; details: three day cell proliferation assay; cited from earlier work
[11] = test system: OVCAR-3 ovary adenocarcinoma cell line; details: three day cell proliferation assay; cited from earlier work
[12] = test system: 66 cancer cell lines (44 cell lines); set-up: method as in earlier work; details: cited from earlier work
[13] = toxicity studies in mice; cited from earlier work
[14] = geometric average of three experiments

T1 sequence (Q96GD4 whole entry, the tested form may be a part): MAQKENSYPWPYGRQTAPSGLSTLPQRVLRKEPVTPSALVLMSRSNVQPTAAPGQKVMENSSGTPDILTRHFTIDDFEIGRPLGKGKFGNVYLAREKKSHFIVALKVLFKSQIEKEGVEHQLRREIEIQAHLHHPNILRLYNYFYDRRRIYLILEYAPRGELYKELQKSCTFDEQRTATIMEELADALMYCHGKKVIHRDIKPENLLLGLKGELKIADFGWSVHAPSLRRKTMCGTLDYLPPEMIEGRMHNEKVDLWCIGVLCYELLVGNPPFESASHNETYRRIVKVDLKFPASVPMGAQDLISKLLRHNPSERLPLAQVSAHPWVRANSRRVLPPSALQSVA

In the case of `CCc1cccc(CC)c1NC(=O)c1ccn2c1CCc1cnc(Nc3ccc(N4CCN(C)CC4)cc3OC)nc1-2` [NTRC 0066-0], the pKd (full-length Aurora B; KD = kd/ka) was 6.04, the ka (full-length Aurora B; geometric average) was 13400 M⁻¹ s⁻¹ and the kd (full-length Aurora B; geometric average) was 0.0122 s⁻¹. The pIC50 ([1]; 5 day proliferation assay, HCT 116 (Suppl. Table 1)) was 7.39, the “Eff. (%)” value ([1]; HCT 116, five days, maximum inhibitory effect, average of three experiments) was 80% and the pIC50 ([1]; HCT 116 near-diploid, five days, geometric average of three experiments (Suppl. Table 2A)) was 7.36. The pIC50 [2] was 6.65, the pIC50 [3] was 6.57 and the “Efficacy (%)” value ([4]; average of three experiments) was 59%. The pIC50 [4, 14] was 7.40, the “Efficacy (%)” value ([5]; average of three experiments) was 36% and the pIC50 [5, 14] was 7.36. The “Δeff. (%)” value ([6]; HCT 116 vs HPT1, -2 and -4) was −33%, the “Phenotype (efficacy)” value ([6]; HCT 116 vs HPT1, -2 and -4, based on % effect) was “resistant” and the “Phenotype (potency)” value ([6]; HCT 116 vs HPT1, -2 and -4, 'resistant' indicates that tetraploids are resistant) was “sensitive”. For the same compound, the ΔpIC50 ([6]; average log shift in sensitivity between parental and tetraploids) was −0.01, the time-in-mitosis ([7]; all cell lines, nuclear envelope breakdown to anaphase onset) was “approximately 20 min” and the defective anaphases ([7]; resistant cell lines) was 63–71%. The defective anaphases ([7]; sensitive cell lines) was “at least 60%”, the “caspase 3/7 activity” value [8] was “induced caspase 3/7 activity” and the “proliferation after compound wash-out (colony formation)” value [9] was “unable to fully resume proliferation”. For the same compound, the pIC50 [10] was 7.43, the pIC50 [11] was 6.05 and 6.06 and the pIC50 ([12]; 3 days, geometric average in 44 cell lines) was 7.17. For the same compound, the pIC50 ([12]; 5 days, geometric average in 66 cancer cell lines) was 7.01 and the “effect on bone marrow or blood cell count (hematological toxicity)” value [13] was “no effect on bone marrow or blood cell count”.
